The values that follow come from US4495356A, “1,4-Dihydropyridine compound” (Nikken Chemicals Co., Ltd., priority 1982, dated 1985).

For series [1], the system named is hepatic disorder induced by carbon tetrachloride. Kind of series: Effect on hepatic disorder induced by carbon tetrachloride in rats (Examples 6 and 7; serum GOT, GPT, bilirubin). To be noted: CCl4 0.5 ml/kg i.p., 200 mg/kg orally for 2 days, blood 24 hours after CCl4; for Bilirubin in serum: normal 0.10 ± 0.00, no combination compound 0.24 ± 0.02; for GPT in serum: normal 46 ± 6, no combination compound 10266 ± 818; for GOT in serum: normal 97 ± 10, no combination compound 16650 ± 1636. Format: in vivo, SLC-Wistar male rats. As for the experimental part: The effects of the sample compounds on hepatic disorders were evaluated by determining the levels of GOT, GPT, and bilirubin […] in serum, after administering carbon tetrachloride and the sample compound to SLC-Wistar male rats (10 week age and body weight of 240 to 270 g) as follows.
Five rats were used in each test group. The sample compounds (i.e., the compounds prepared in Examples 2 and 3) were suspended at a concentration of 40 mg/ml in a 0.1% aqueous solution of Tween-80. Alpha-tocopherol was dissolved at a concentration of 40 mg/ml in olive oil. This solution was administered orally at a dose of 200 mg/kg each for 2 days. Glutathione was dissolved at a concentration of 100 mg/ml in a 0.1% aqueous solution of Tween-80. This solution was orally administered at a dose of 500 mg/kg for 2 days. Carbon tetrachloride was intraperitoneally administered as a 10% olive oil solution at a dose of 5 ml/kg (0.5 ml/kg in terms of CCl4) one hour after the final administration of each sample compound.
Blood sampels were collected from the carotid artery under pentobarbital anesthesia, 24 hours after the administration of carbon tetrachloride. The rats were fasted for 18 to 20 hours before collecting of a blood sample.
(§1) The determination of GOT and GPT in serum was carried out according to a UV method and the determination of bilirubin was carried out according to a diazo method.

A short description of series [2]: in vivo. To be noted: rat, oral, rats 5 week age, observed for 3 days.
Series [3] deals with hepatic disorder induced by carbon tetrachloride. Kind of series: Effect on hepatic disorder induced by carbon tetrachloride in rats (Example 5; serum GOT, GPT, bilirubin). It is filed as in vivo, SLC-Wistar male rats. To be noted: CCl4 0.5 ml/kg i.p., blood 24 hours after CCl4; for Bilirubin in serum: normal 0.12 ± 0.02, no combination compound 0.26 ± 0.02; for GPT in serum: normal 32 ± 3, no combination compound 10606 ± 1952; for GOT in serum: normal 73 ± 5, no combination compound 18228 ± 2032. As to the method:
Five rats were used in each test group. The sample compound (i.e., the compound prepared in Example 1) was suspended at a concentration of 40 mg/ml in a 0.1% aqueous solution of Tween-80. Alpha-tocopherol was dissolved at a concentration of 40 mg/ml in an olive oil. This solution was administered orally at a dose of 200 mg/kg each for 2 days. Glutathione was dissolved at a concentration of 100 mg/ml in a 0.1% aqueous solution of Tween-80. This solution was orally administered at a dose of 500 mg/kg for 2 days. Carbon tetrachloride was intraperitoneally administered as a 10% olive oil solution at a dose of 5 ml/kg (0.5 ml/kg in terms of CCl4) one hour after the final administration of the sample compound. Blood samples were collected from the carotid artery under pentobarbital anesthesia, 24 hours after the administration of carbon tetrachloride. […] The determination of GOT and GPT in serum was carried out according to a UV method and the determination of bilirubin was carried out according to a diazo method.

Series [4] concerns liver disorder induced by D-galactosamine. Briefly: Effect on liver disorder induced by D-galactosamine in rats (serum GOT, GPT, bilirubin). It is filed as in vivo, Wistar-Imamichi male rats. The settings on record: D-galactosamine 400 mg/kg i.p., 200 mg/kg orally for 2 days, blood 24 hours after D-galactosamine; for Bilirubin in serum: normal 0.12 ± 0.02, no combination compound 0.43 ± 0.06; for GPT in serum: normal 15 ± 1, no combination compound 2195 ± 460; for GOT in serum: normal 97 ± 3, no combination compound 6170 ± 1507. As to the method: Effect of 3,5-diethoxycarbonyl-4-[2'-(5',6'-dihydro-p-dioxinyl)]-2,6-dimethyl-1,4-dihydropyridine (compound of Example 1) on liver disorder induced by D-galactosamine.
The effect of the sample compound to be tested on hepatic disorder was evaluated by determining the levels of GOT, GPT and bilirubin, which are known as an indicator of hepatic disorder, in serum, after administering D-galactosamine hydrochloride and the sample compound to Wistar-Imamichi male rats (8 week age and body weight of 260 to 280 g) as follows.
Five rats were used in each test group. The sample compound (i.e., the compound prepared in Example 1) was suspended at a concentration of 40 mg/ml in a 0.1% aqueous solution of Tween-80 (Trademark of surfactant available from Atlas Chemical Corp.). Alpha-tocopherol was dissolved at a concentration of 40 mg/ml in olive oil. This solution was administered orally at a dose of 200 mg/kg each for 2 days (25 and 1 hours before the administration of D-galactosamine). D-galactosamine was dissolved at a concentration of 100 mg/ml in a Physiological saline and this solution was administered intraperitoneally at a single dose of 400 mg/kg one hour after the final administration of the sample compound.
Blood samples were collected from the carotid artery under pentobarbital anesthesia, 24 hours after the administration of D-galactosamine. The rats were fasted for 18 to 20 hours before collecting of blood sample.
as §1

[5] abbreviates: glutathione 500 mg/kg orally for 2 days.

As for `CCCOC(=O)C1=C(C)NC(C)=C(C(=O)OCCC)C1C1=COCCO1` [Example 2, 3,5-di-n-propyloxycarbonyl-4-[2'-(5',6'-dihydro-p-dioxynyl)]-2,6-dimethyl-1,4-dihydropyridine], in series [1], the Bilirubin in serum was determined as 0.13 ± 0.03 mg/dL, the GPT in serum turned out to be 1443 ± 228 KU and the GOT in serum is reported as 2456 ± 734 KU. Also, the LD50 (in general, the dose expected to kill half of the subjects tested) at 72 h in series [2] is ≥ 2000 mg/kg.

Consider `N[C@@H](CCC(=O)N[C@@H](CS)C(=O)NCC(=O)O)C(=O)O` [glutathione], for which, in series [3] (setting [5]), the Bilirubin in serum came out at 0.22 ± 0.02 mg/dL, the GPT in serum is recorded as 7722 ± 1170 KU and the GOT in serum is listed as 11272 ± 1904 KU.

With `COC(=O)C1=C(C)NC(C)=C(C(=O)OC)C1C1=COCCO1` [Example 3, 3,5-dimethoxycarbonyl-4-2'-(5',6'-dihydro-p-dioxinyl)-2,6-dimethyl-1,4-dihydropyridine], in series [1], the Bilirubin in serum amounted to 0.14 ± 0.02 mg/dL, the GPT in serum stood at 680 ± 107 KU and the GOT in serum is listed as 901 ± 127 KU.

On to `CCOC(=O)C1=C(C)NC(C)=C(C(=O)OCC)C1C1=COCCO1` [Example 1, 3,5-diethoxycarbonyl-4-[2'-(5',6'-dihydro-p-dioxinyl)]-2,6-dimethyl-1,4-dihydropyridine], for which, in series [4], the Bilirubin in serum is 0.30 ± 0.06 mg/dL, the GPT in serum is 862 ± 373 KU and the GOT in serum worked out at 2194 ± 777 KU. For the same compound, in series [3] (200 mg/kg orally for 2 days), the Bilirubin in serum came out at 0.14 ± 0.02 mg/dL, the GPT in serum stood at 1396 ± 290 KU and the GOT in serum was 1800 ± 321 KU. Besides, the median lethal dose (LD50) at 72 h in series [2] is ~2000 mg/kg.

As to `Cc1c(C)c2c(c(C)c1O)CCC(C)(CCCC(C)CCCC(C)CCCC(C)C)O2` (stereo not drawn) [alpha-tocopherol, reference compound], in series [4], the Bilirubin in serum came out at 0.26 ± 0.02 mg/dL, the GPT in serum amounted to 1043 ± 189 KU and the GOT in serum came out at 3065 ± 440 KU. Further, in series [3] (200 mg/kg orally for 2 days), the Bilirubin in serum amounted to 0.18 ± 0.02 mg/dL, the GPT in serum is listed as 5764 ± 1564 KU and the GOT in serum came to 5662 ± 793 KU. In addition, in series [1], the Bilirubin in serum amounted to 0.26 ± 0.04 mg/dL, the GPT in serum stood at 9106 ± 591 KU and the GOT in serum worked out at 14558 ± 1049 KU.
